EP3800188A1, “SUBSTITUTED PYRAZOLOPYRIMIDINES AS IRAK4 INHIBITORS” (Bayer AG, priority 2019, dated 2021)
pIC50: −log10 of the molar value.

Molecular target: T1, human IRAK4 (Homo sapiens, UniProt Q9NWZ3)
T1 construct: GST (N); made in house; host or cells: baculovirus-infected Hi5 (BTI-TN-5B1-4) insect cells
T1 sequence (Q9NWZ3 1-460): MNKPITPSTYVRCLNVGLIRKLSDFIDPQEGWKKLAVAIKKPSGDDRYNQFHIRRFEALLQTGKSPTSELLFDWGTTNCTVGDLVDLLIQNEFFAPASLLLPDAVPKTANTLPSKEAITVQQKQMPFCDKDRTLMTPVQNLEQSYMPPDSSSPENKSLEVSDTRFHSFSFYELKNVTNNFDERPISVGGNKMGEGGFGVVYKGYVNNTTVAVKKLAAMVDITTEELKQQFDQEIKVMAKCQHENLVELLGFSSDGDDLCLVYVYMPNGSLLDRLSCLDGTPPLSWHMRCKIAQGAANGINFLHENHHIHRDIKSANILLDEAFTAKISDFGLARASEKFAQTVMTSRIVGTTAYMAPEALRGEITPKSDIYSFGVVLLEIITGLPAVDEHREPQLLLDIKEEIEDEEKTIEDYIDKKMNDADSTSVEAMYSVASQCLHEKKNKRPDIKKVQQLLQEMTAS
Experiment: Human IRAK4 kinase activity inhibition assay (IRAK4 TR-FRET assay)
Assay type: biochemical
Conditions: 1 mM ATP, GST-human IRAK4, average or median values
How it was run: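 GST-IRAK4 from insect cells (about 0.2 nM, linear range) was preincubated 15 min with compound (11 concentrations, 20 µM–0.073 nM) in HEPES pH 7.5 with MgCl2 and DTT before kinase reaction on a biotinylated peptide. Phosphopeptide was detected by TR-FRET (Eu anti-mouse-IgG/anti-phosphoserine/streptavidin-XL665, 1 h at 22°C) as the 665/620 nm ratio, normalized to no-compound and no-enzyme controls.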

Compound	pIC50
CC1(O)CCN(C2CN(c3nc(NC4CCS(=O)(=O)CC4)nc4c3cnn4-c3cccc(C(F)(F)F)c3)C2)CC1 [Example I-80, 1-(1-{6-[(1,1-dioxidotetrahydro-2H-thiopyran-4-yl)amino]-1-[3-(trifluoromethyl)phenyl]-1H-pyrazolo[3,4-d]pyrimidin-4-yl}azetidin-3-yl)-4-methylpiperidin-4-ol]	7.94
CCS(=O)(=O)N1CC(Nc2nc(N3CC(N4CCOCC4)C3)c3cnn(-c4cccc(C(F)(F)F)c4)c3n2)C1 [Example I-81, N-[1-(ethylsulfonyl)azetidin-3-yl]-4-[3-(morpholin-4-yl)azetidin-1-yl]-1-[3-(trifluoromethyl)phenyl]-1H-pyrazolo[3,4-d]pyrimidin-6-amine]	7.08
CCS(=O)(=O)[C@H]1C[C@H](Nc2nc(N3CC(N4CCOCC4)C3)c3cnn(-c4cccc(C(F)(F)F)c4)c3n2)C1 [Example I-82, N-[trans-3-(ethylsulfonyl)cyclobutyl]-4-[3-(morpholin-4-yl)azetidin-1-yl]-1-[3-(trifluoromethyl)phenyl]-1H-pyrazolo[3,4-d]pyrimidin-6-amine]	7.94
CCS(=O)(=O)N1CC(Nc2nc(N3C[C@@H](O)[C@H](O)C3)c3cnn(-c4cccc(C(F)(F)F)c4)c3n2)C1 [Example I-84, (3R,4R)-1-(6-{[1-(ethylsulfonyl)azetidin-3-yl]amino}-1-[3-(trifluoromethyl)phenyl]-1H-pyrazolo[3,4-d]pyrimidin-4-yl)pyrrolidine-3,4-diol]	7.32
CCS(=O)(=O)[C@H]1C[C@H](Nc2nc(N3C[C@@H](O)[C@H](F)C3)c3cnn(-c4cccc(C(F)(F)F)c4)c3n2)C1 [Example I-87, (3R,4R)-1-(6-{[(1r,3R)-3-(ethylsulfonyl)cyclobutyl]amino}-1-[3-(trifluoromethyl)phenyl]-1H-pyrazolo[3,4-d]pyrimidin-4-yl)-4-fluoropyrrolidin-3-ol]	8.10
CC(C)(O)C1CCN(c2nc(N[C@H]3C[C@@](C)(O)C3)nc3c2cnn3-c2cccc(C(F)(F)F)c2)CC1 [Example I-90, cis-3-({4-[4-(2-hydroxypropan-2-yl)piperidin-1-yl]-1-[3-(trifluoromethyl)phenyl]-1H-pyrazolo[3,4-d]pyrimidin-6-yl}amino)-1-methylcyclobutanol]	7.61
CS(=O)(=O)[C@H]1C[C@H](Nc2nc(N3CCC(O)CC3)c3cnn(-c4cccc(C(F)(F)F)c4)c3n2)C1 [Example I-93, 1-(6-{[trans-3-(methylsulfonyl)cyclobutyl]amino}-1-[3-(trifluoromethyl)phenyl]-1H-pyrazolo[3,4-d]pyrimidin-4-yl)piperidin-4-ol]	7.95
CCS(=O)(=O)[C@H]1C[C@H](Nc2nc(N3C[C@H](O)[C@@H](F)C3)c3cnn(-c4cccc(C(F)(F)F)c4)c3n2)C1 [Example I-95, (3S,4S)-1-(6-{[(1r,3S)-3-(ethylsulfonyl)cyclobutyl]amino}-1-[3-(trifluoromethyl)phenyl]-1H-pyrazolo[3,4-d]pyrimidin-4-yl)-4-fluoropyrrolidin-3-ol]	7.60
O[C@H]1CN(c2nc(N[C@H]3C[C@H](O)C3)nc3c2cnn3-c2cccc(C(F)(F)F)c2)C[C@@H]1F [Example I-96, (3S,4S)-4-fluoro-1-(6-{[(1r,3S)-3-hydroxycyclobutyl]amino}-1-[3-(trifluoromethyl)-phenyl]-1H-pyrazolo[3,4-d]pyrimidin-4-yl)pyrrolidin-3-ol]	8.09
O[C@H]1CN(c2nc(N[C@H]3C[C@@H](O)C3)nc3c2cnn3-c2cccc(C(F)(F)F)c2)C[C@@H]1F [Example I-97, (3S,4S)-4-fluoro-1-(6-{[(1s,3R)-3-hydroxycyclobutyl]amino}-1-[3-(trifluoromethyl)-phenyl]-1H-pyrazolo[3,4-d]pyrimidin-4-yl)pyrrolidin-3-ol]	8.09
CS(=O)(=O)[C@H]1C[C@H](Nc2nc(N3CC(F)C3)c3cnn(-c4cccc(C(F)(F)F)c4)c3n2)C1 [Example I-99, 4-(3-fluoroazetidin-1-yl)-N-[trans-3-(methylsulfonyl)cyclobutyl]-1-[3-(trifluoromethyl)-phenyl]-1H-pyrazolo[3,4-d]pyrimidin-6-amine]	7.79
OC1CCN(c2nc(N[C@H]3C[C@H](O)C3)nc3c2cnn3-c2cccc(C(F)(F)F)c2)CC1 [Example I-100]	7.30
C[C@@]1(O)CCN(c2nc(N[C@H]3C[C@H](O)C3)nc3c2cnn3-c2cccc(C(F)(F)F)c2)C1 [Example I-102, (3R)-1-(6-{[(1r,3R)-3-hydroxycyclobutyl]amino}-1-[3-(trifluoromethyl)phenyl]-1H-pyrazolo[3,4-d]pyrimidin-4-yl)-3-methylpyrrolidin-3-ol]	7.30
C[C@@]1(O)CCN(c2nc(N[C@H]3C[C@H](S(C)(=O)=O)C3)nc3c2cnn3-c2cccc(C(F)(F)F)c2)C1 [Example I-103, (3R)-3-methyl-1-(6-{[(1r,3R)-3-(methylsulfonyl)cyclobutyl]amino}-1-[3-(trifluoromethyl)-phenyl]-1H-pyrazolo[3,4-d]pyrimidin-4-yl)pyrrolidin-3-ol]	7.94
CC1(O)CCN(C2CN(c3nc(N[C@H]4C[C@](C)(O)C4)nc4c3cnn4-c3cccc(C(F)(F)F)c3)C2)CC1 [Example I-110, 1-(1-{6-[(trans-3-hydroxy-3-methylcyclobutyl)amino]-1-[3-(trifluoromethyl)phenyl]-1H-pyrazolo[3,4-d]pyrimidin-4-yl}azetidin-3-yl)-4-methylpiperidin-4-ol]	7.93
CC(C)(O)C1CN(c2nc(N[C@H]3C[C@@H](O)C3)nc3c2cnn3-c2cccc(C(F)(F)F)c2)C1 [Example I-116, cis-3-({4-[3-(2-hydroxypropan-2-yl)azetidin-1-yl]-1-[3-(trifluoromethyl)phenyl]-1H-pyrazolo[3,4-d]pyrimidin-6-yl}amino)cyclobutanol]	7.77
O[C@@H]1CCN(c2nc(N[C@H]3C[C@@H](O)C3)nc3c2cnn3-c2cccc(C(F)(F)F)c2)C1 [Example I-117, (3R)-1-(6-{[(1s,3S)-3-hydroxycyclobutyl]amino}-1-[3-(trifluoromethyl)phenyl]-1H-pyrazolo[3,4-d]pyrimidin-4-yl)pyrrolidin-3-ol]	7.63
O[C@H]1C[C@@H](Nc2nc(N3CC(N4CCC(F)(F)C4)C3)c3cnn(-c4cccc(C(F)(F)F)c4)c3n2)C1 [Example I-118, cis-3-({4-[3-(3,3-difluoropyrrolidin-1-yl)azetidin-1-yl]-1-[3-(trifluoromethyl)phenyl]-1H-pyrazolo[3,4-d]pyrimidin-6-yl}amino)cyclobutanol]	8.29
O[C@H]1C[C@H](Nc2nc(N3CC(N4CC(F)C4)C3)c3cnn(-c4cccc(C(F)(F)F)c4)c3n2)C1 [Example I-119, trans-3-({4-(3-fluoro[1,3'-biazetidin]-1'-yl)-1-[3-(trifluoromethyl)phenyl]-1H-pyrazolo[3,4-d]pyrimidin-6-yl}amino)cyclobutanol]	7.78
C[C@]1(O)C[C@H](Nc2nc(N3CC(N4CC(F)C4)C3)c3cnn(-c4cccc(C(F)(F)F)c4)c3n2)C1 [Example I-120, trans-3-({4-(3-fluoro[1,3'-biazetidin]-1'-yl)-1-[3-(trifluoromethyl)phenyl]-1H-pyrazolo[3,4-d]pyrimidin-6-yl}amino)-1-methylcyclobutanol]	7.78
